Assay results as given in patent publication US10422787B2, “System and method for single molecule detection” (ARIZONA BOARD OF REGENTS on behalf of ARIZONA STATE …, priority 2015, dated 2019).

Assays:
Format in all cases: binding
cyclic RGD peptide [1] = experiment: Nanopore (approximately 12 nm) junction device functionalized with cyclic RGD peptide
Experimental: Accordingly, in some embodiments, the background signal corresponds to the number of molecules adsorbed on the electrodes. This can be substantiated by collecting signals from a device small enough to allow only one integrin molecule to be trapped. In such a device, experiments were performed where the electrode edges were exposed by drilling a nanopore of approximately 12 nm diameter through the junction device. The electrodes were functionalized again with the cyclic RGD peptide. […] However, when 1 nM αVβ3 integrin is added a signal is generated (FIG. 11). […] This is because there is room for only one molecule at a time in the device, and this confirms that, in some embodiments, the background current arises from adsorption of many molecules.

cyclic RGD peptide [2] = experiment: Fixed-gap (5 nm) MEMED tunnel chip functionalized with cyclic RGD peptide; parameters: signal in fixed-gap device: dose or concentration left out as unconfirmed
Experimental: A fixed gap tunneling device has significant advantages over STM measurements. […] It is fabricated much as described in our earlier paper. The basic fabrication of the layered device (10 nm Pd, 4 to 5 nm Al2O3 followed by 10 nm Pd, resting on top of a 25 nm SiN substrate and passivated on top with SiO2) was carried out by Norcada Inc. (Edmonton, Alberta). Our original devices had large (micron-scale) openings, but it was desired to restrict the region over which proteins could be captured to dimensions small enough that the capture of multiple molecules in the tunnel junction was unlikely (illustrated schematically by the capture of a single integrin in FIG. 16A). RIE was used to thin the underlying SiN substrate to ˜15 nm, followed by e-beam lithography using a hard mask and further RIE etching (FIG. 16C and Methods). In this way, slits were produced that were 50 to 100 nm across and up to 400 nm long, though the active area was defined by the top electrode widths of about 100 nm (FIG. 16C). After cleaning and functionalization (Methods) the device was immersed in 1 mM phosphate buffer (pH=7.4) with the electrode potentials controlled with respect to an Ag/AgCl electrode coupled via a salt bridge (SB in FIG. 16A).
Our devices often suffer from failure of the passivation layer (SiO2 in FIG. 16B) so that, even in the dilute electrolyte, leakage currents can be substantial (e.g., a few nA, FIG. 16D). […] Thus, these are currents that pass from exposed regions of the top electrodes via the electrolyte, and they are not a consequence of tunneling or electrochemical leakage across the tunnel gap itself. These leakage currents (FIG. 16D) show no distinctive features beyond the shot- and system electronic noise (distributed as a Gaussian, FIG. 16E). When […] α1β4 protein was added (FIG. 16F) the background current falls a little, presumably because of passivation of the exposed electrodes by non-specific adsorption of this protein. Once again, the signal is featureless, displaying the same intrinsic noise as observed in buffer alone (FIG. 16G). (In contrast to the STM measurements, no features have been observed in the fixed-gap devices in any measurement taken in the presence of α1β4.) However, once αVβ3 protein is added to the same device, dramatic jumps occur in the current (FIG. 16H). The background leakage current is reduced by about 20% on addition of the protein, consistent with the passivation effect seen in the macroscopic electrochemical measurements (FIGS. 14B, 14C). The signal jumps up from the baseline to two well defined levels (FIG. 16I) in this case. The states are separated by nearly 0.5 nA, corresponding to ˜1.5 nS conductance (Vt=0.3V). […]

cyclic RGD peptide [3] = experiment: STM experiment, gold probe functionalized with RGD peptide over bare gold substrate; conditions: 100 nM protein, starting gap 2.7 nm
From the text: Accordingly, in some embodiments, functionalizing just one of a pair of electrodes generates a unique electrical recognition signal for a corresponding molecule(s). To do this, a scanning tunneling microscope (STM) was used (see STM, FIG. 5A), where a gold probe 51 was functionalized with the RGD peptide 53 via the chemical interaction between the cysteine residue and the gold. The probe was positioned at a set point bias (V) and current (I) such that the apex of the probe was held approximately 2.7 nm above a bare gold substrate, 52. As the probe was pulled away an extra distance ΔZ from the surface, a decaying current could be observed during some of the experiments (e.g., feature 57 in FIG. 5B). However, in the absence of the αVβ3 integrin, no other features were observed, even if fairly high concentrations (e.g., 100 nM) of a protein such as BSA were added to the solution in the STM. Once 100 nM αVβ3 integrin 56 was added to the solution, a new feature appeared as a current peak away from the origin 58 in FIG. 5B.
In contrast to conventional tunneling signals, these signals peak when the probe is some distance away from the surface, signifying that the probe has captured a conductive particle.

Substance | fluctuating current component (cyclic RGD peptide [1]; 1 nM) | signal in undiluted Serasub (protein-free serum substitute) (cyclic RGD peptide [2]; 0.1 nM, tunneling bias 200 mV) [LS signals were observed] | conductance of current jump (cyclic RGD peptide [2]; Vt=0.3V, 5 nm gap) [nS] | separation of current states (current jumps) (cyclic RGD peptide [2]; Vt=0.3V, 5 nm gap) [nA] | current peak features on probe withdrawal (cyclic RGD peptide [3]) | signal in nanopore device (cyclic RGD peptide [1]; 1 nM solution) | signal in fixed-gap device (cyclic RGD peptide [2]; protein added)
αvβ3: ~200 kD αVβ3 extracelluar domain of human integrin, target protein bound by cyclic RGD peptide | about 0.2 nA | 2 | ~1.5 | ~0.5 | many tens of picoamps | – | –
α4β1: homologous, weakly-binding integrin protein used as a control | – | – | – | – | – | no signals are generated | featureless
